According to patent US12371454B2, “Cyclic peptide compound having Kras inhibitory action” (priority 2019, dated 2025):
pIC50: −log10 of the molar value. Positions of bridges follow the written chain, without caps; N, C: chain ends. Non-standard residues stand in square brackets, D forms with d. Residues, ends and D or L forms follow the SMILES beside them. *: point of attachment. hPhe(3,5-F2-4-CF3) = N[C@@H](CCc1cc(F)c(C(F)(F)F)c(F)c1)C(=O)O; hPhe(3-Cl-4-CF3) = N[C@@H](CCc1ccc(C(F)(F)F)c(Cl)c1)C(=O)O; NMePhe(4-CF3) = CN[C@@H](Cc1ccc(C(F)(F)F)cc1)C(=O)O; NMePhe(4-Me) = CN[C@@H](Cc1ccc(C)cc1)C(=O)O; NMePhe(4-F) = CN[C@@H](Cc1ccc(F)cc1)C(=O)O; NMeGly(cPent) = CN[C@H](C(=O)O)C1CCCC1; Phe(3-I) = N[C@@H](Cc1cccc(I)c1)C(=O)O; Pro(4,4-F2) = O=C(O)[C@@H]1CC(F)(F)CN1; NMeCha = CN[C@@H](CC1CCCCC1)C(=O)O; Hyp = O=C(O)[C@@H]1C[C@@H](O)CN1; NMeChg = CN[C@H](C(=O)O)C1CCCCC1; NMeI = CC[C@H](C)[C@H](NC)C(=O)O; NMeD = CN[C@@H](CC(=O)O)C(=O)O; NMeL = CN[C@@H](CC(C)C)C(=O)O; d(β3hA) = C[C@@H](N)CC(=O)O; Morpholide = C1CN(*)CCO1; NMeA = CN[C@@H](C)C(=O)O; NMeAib = CNC(C)(C)C(=O)O; Piperidide = C1CCN(*)CC1; Pra = C#CC[C@H](N)C(=O)O; Pyrrolidide = C1CCN(*)C1; Ac5c = NC1(C(=O)O)CCCC1; Aze = O=C(O)[C@@H]1CCN1; Sar = CNCC(=O)O

molecular target: T1, Kras and SOS1 (biotin-tagged human Kras loaded with GDP, His-tagged human SOS1) (Homo sapiens, UniProt P01116, G12D); test: Protein-protein interaction inhibition between Kras and SOS1 (KrasGl2D-SOS PPI) using AlphaScreen; type: binding; settings: AlphaScreen; biotin-tagged human Kras loaded with GDP, His-tagged human SOS1; read-out: KRAS G12D-SOS PPI IC50
T1 construct: made in house; host or cells: E. coli (stated for Kras only)
Method in brief: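 Binding between SOS1 and Kras is detected as bead-proximity luminescence: illuminate Ni-conjugated donors (680 nm), collect 520-620 nm emission from streptavidin-conjugated acceptors; Kras carries biotin and GDP loaded after purification, SOS1 carries a His tag.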

T1 sequence (P01116 1-188 isoform P01116-2 G12D): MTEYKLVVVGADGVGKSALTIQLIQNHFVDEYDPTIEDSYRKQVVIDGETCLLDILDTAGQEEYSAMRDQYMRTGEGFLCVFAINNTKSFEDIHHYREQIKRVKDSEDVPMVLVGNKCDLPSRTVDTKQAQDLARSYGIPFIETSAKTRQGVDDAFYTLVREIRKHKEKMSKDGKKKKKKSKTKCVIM

**Q.** `C#CC[C@@H]1NC(=O)[C@H](Cc2cccc(I)c2)NC(=O)CN(C)C(=O)[C@H](Cc2ccc(F)cc2)N(C)C(=O)CN(C)C(=O)CN(C)C(=O)[C@H]([C@@H](C)CC)NC(=O)[C@H](CC(C)C)N(C)C(=O)C[C@@H](C(=O)N2CCCCC2)N(C)C(=O)[C@H](CC(C)C)NC(=O)C(C)(C)N(C)C1=O` [Compound 1327] ([NMeL]I[Sar][Sar][NMePhe(4-F)][Sar][Phe(3-I)][Pra][NMeAib]L[NMeD]-Piperidide; lactam N-11) was tested. Which pIC50 did it give?
**A.** 7.14

**Q.** With `CC[C@H](C)[C@@H]1NC(=O)[C@H](CC(C)C)N(C)C(=O)C[C@@H](C)NC(=O)[C@H](C2CCCC2)N(C)C(=O)C2(CCCC2)NC(=O)[C@@H](C)NC(=O)[C@H](CCc2ccc(C(F)(F)F)c(Cl)c2)NC(=O)CN(C)C(=O)[C@H](Cc2ccc(C)cc2)N(C)C(=O)[C@@H]2CCN2C(=O)[C@H](C)N(C)C1=O` [Compound 1328] (cyclo([Ac5c][NMeGly(cPent)][d(β3hA)][NMeL]I[NMeA][Aze][NMePhe(4-Me)][Sar][hPhe(3-Cl-4-CF3)][dA])) as the compound, how does the pIC50 read?
**A.** 6.66

**Q.** With `CCO[C@@H]1C[C@H]2C(=O)NC3(CCCC3)C(=O)N(C)[C@@H]([C@@H](C)CC)C(=O)N(C)[C@H](C(=O)N3CCOCC3)CC(=O)N(C)[C@@H](CC(C)C)C(=O)N[C@@H]([C@@H](C)CC)C(=O)N(C)[C@@H](C)C(=O)N3CC[C@H]3C(=O)N(C)[C@@H](Cc3ccc(C(F)(F)F)cc3)C(=O)N(C)CC(=O)N[C@@H](CCc3ccc(C(F)(F)F)c(Cl)c3)C(=O)N2C1` [Compound 1330] ([NMeL]I[NMeA][Aze][NMePhe(4-CF3)][Sar][hPhe(3-Cl-4-CF3)][Hyp](Et)[Ac5c][NMeI][NMeD]-Morpholide; lactam N-11) as the compound, how does the pIC50 read?
**A.** 9.21

**Q.** With `CC[C@H](C)[C@@H]1NC(=O)[C@H](CC(C)C)N(C)C(=O)C[C@@H](C(=O)N2CCOCC2)N(C)C(=O)[C@H](C2CCCCC2)N(C)C(=O)C2(CCCC2)NC(=O)[C@@H]2CCCN2C(=O)[C@H](CCc2ccc(C(F)(F)F)c(Cl)c2)NC(=O)CN(C)C(=O)[C@H](CC2CCCCC2)N(C)C(=O)CN(C)C(=O)CN(C)C1=O` [Compound 1333] ([NMeL]I[Sar][Sar][NMeCha][Sar][hPhe(3-Cl-4-CF3)]P[Ac5c][NMeChg][NMeD]-Morpholide; lactam N-11) as the compound, how does the pIC50 read?
**A.** 9.32

**Q.** With `CC[C@H](C)[C@@H]1NC(=O)[C@H](CC(C)C)N(C)C(=O)C[C@@H](C(=O)N2CCOCC2)N(C)C(=O)[C@H](C2CCCCC2)N(C)C(=O)C2(CCCC2)NC(=O)[C@@H]2CC(F)(F)CN2C(=O)[C@H](CCc2cc(F)c(C(F)(F)F)c(F)c2)NC(=O)CN(C)C(=O)[C@H](CC2CCCCC2)N(C)C(=O)CN(C)C(=O)CN(C)C1=O` [Compound 1337] ([NMeL]I[Sar][Sar][NMeCha][Sar][hPhe(3,5-F2-4-CF3)][Pro(4,4-F2)][Ac5c][NMeChg][NMeD]-Morpholide; lactam N-11) as the compound, how does the pIC50 read?
**A.** 9.26

**Q.** `CC[C@H](C)[C@@H]1NC(=O)[C@H](CC(C)C)N(C)C(=O)C[C@@H](C(=O)N2CCCC2)N(C)C(=O)[C@H](C2CCCC2)N(C)C(=O)C2(CCCC2)NC(=O)[C@@H]2CCCN2C(=O)[C@H](CCc2cc(F)c(C(F)(F)F)c(F)c2)NC(=O)CN(C)C(=O)[C@H](CC2CCCCC2)N(C)C(=O)CN(C)C(=O)CN(C)C1=O` [Compound 1342] ([NMeL]I[Sar][Sar][NMeCha][Sar][hPhe(3,5-F2-4-CF3)]P[Ac5c][NMeGly(cPent)][NMeD]-Pyrrolidide; lactam N-11) was tested. Which pIC50 did it give?
**A.** 9.28

**Q.** How did the pIC50 turn out when `CC[C@H](C)[C@@H]1NC(=O)[C@H](CC(C)C)N(C)C(=O)C[C@@H](C(=O)N2CCCC2)N(C)C(=O)[C@H]([C@@H](C)CC)N(C)C(=O)C2(CCCC2)NC(=O)[C@@H]2CCCN2C(=O)[C@H](CCc2cc(F)c(C(F)(F)F)c(F)c2)NC(=O)CN(C)C(=O)[C@H](Cc2ccc(C(F)(F)F)cc2)N(C)C(=O)[C@@H]2CCN2C(=O)[C@H](C)N(C)C1=O` [Compound 1343] ([NMeL]I[NMeA][Aze][NMePhe(4-CF3)][Sar][hPhe(3,5-F2-4-CF3)]P[Ac5c][NMeI][NMeD]-Pyrrolidide; lactam N-11) was run?
**A.** 9.21

**Q.** `C#CC[C@@H]1NC(=O)[C@H](Cc2cccc(I)c2)NC(=O)CN(C)C(=O)[C@H](Cc2ccc(F)cc2)N(C)C(=O)[C@@H]2CCN2C(=O)CN(C)C(=O)[C@H]([C@@H](C)CC)NC(=O)[C@H](CC(C)C)N(C)C(=O)C[C@@H](C(=O)N2CCCCC2)N(C)C(=O)[C@H](CC(C)C)NC(=O)C(C)(C)N(C)C1=O` [Compound 1344] ([NMeL]I[Sar][Aze][NMePhe(4-F)][Sar][Phe(3-I)][Pra][NMeAib]L[NMeD]-Piperidide; lactam N-11) was tested. Which pIC50 did it give?
**A.** 6.72

**Q.** With `CC[C@H](C)[C@@H]1NC(=O)[C@H](CC(C)C)N(C)C(=O)C[C@@H](C(=O)N2CCCCC2)N(C)C(=O)[C@H](C2CCCCC2)N(C)C(=O)C2(CCCC2)NC(=O)[C@@H]2CCCN2C(=O)[C@H](CCc2ccc(C(F)(F)F)c(Cl)c2)NC(=O)CN(C)C(=O)[C@H](CC2CCCCC2)N(C)C(=O)CN(C)C(=O)[C@H](C)N(C)C1=O` [Compound 1345] ([NMeL]I[NMeA][Sar][NMeCha][Sar][hPhe(3-Cl-4-CF3)]P[Ac5c][NMeChg][NMeD]-Piperidide; lactam N-11) as the compound, how does the pIC50 read?
**A.** 7.40
